Reference: PMC7284125, “Identification of annotated bioactive molecules that impair motility of the blood fluke Schistosoma mansoni” (International Journal for Parasitology: Drugs and Drug …, 2020)
Like-named read-outs stand apart in the source and are kept apart here.

Assays:
[1] = system: naïve Glo HEK293 cells (no receptor); test: cAMP luminescence (GloSensor) assay on naïve Glo HEK293 cells (no receptor); assay type: cell-based, human; details: for inhibition of EPN-evoked luminescence: 50 μM EPN
Description: The SmGPR2 sequence previously identified ([El-Shehabi and Ribeiro, 2010]) was codon optimized for mammalian expression and subcloned in the vector pCI-neo (Addgene, USA) using the XbaI and NotI restriction enzymes. A FLAG fusion tag ([…]) was introduced at the N-terminal end of the receptor sequence. Stable transfection of HEK293 cells (ATCC; CRL-1573) was performed using the X-tremeGENE 9 DNA transfection reagent (Sigma Aldrich). Cells were then cultured at 37 °C, 5% CO2 in Opti-MEM supplemented with 5% FBS and maintained in 400 μg/mL G418 (Sigma Aldrich) for selection of transformants. […] All cell lines expressing S. mansoni GPCRs were then transfected with the GloSensor encoding plasmid p22F (Promega) and media was supplemented with 100 μg/mL hygromycin for stable expression (ThermoFisher).
Adherent HEK293 cells were seeded at a density of 5 x 10^4 cells/well (96-well plate) in Opti-MEM without FBS or antibiotics and incubated overnight at 37 °C and 5% CO2 prior to the assay. In place of the media, 100 μL HBSS supplemented with 0.1% bovine serum albumin (BSA), 500 μM 3-isobutyl-1-methylxanthine (IBMX, Sigma Aldrich), 20 mM HEPES (pH 7.4) and 1 mg/mL D-luciferin (Goldbio) was added to each well. After a 2 h incubation period at room temperature, luminescence background was recorded, and compounds and control ligands were added at 10X concentration. Immediately after compound addition, luminescence was read over a 45 min period to detect compounds stimulating cAMP release through receptor activation. […] For each assay, luminescence responses were recorded in triplicate and repeated with four independant cell batches. Compounds were also added to naïve Glo HEK293 cells (no receptor) and the robustness of the assay was calculated as: Z^'=1−3×(SDmax+SDmin)/Meanmax−Meanmin with max and min referring respectively to cells expressing GPCRs and Glo (no receptor) cells. Cellular viability was assessed using a CellTiter Glo 2.0 kit (Promega). Glo cells were exposed to 10 μM of each hit compound for 3 h in Opti-MEM at 37 °C, 5% CO2. An equimolar concentration of tamoxifen (Sigma Aldrich) was used as a positive control. 2X cell lysis media was then added and end-point luminescence recorded after a 10 min stabilization time.

S. mansoni adult worms = test: Motility assay on adult parasites (pixel displacement, relative to DMSO control); assay type: cell-based, Schistosoma mansoni; details: secondary screen, 10 μM
Method in brief: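 Unpaired adult worms from mice 6 weeks post-infection kept in OPTI-MEM with 5% dialyzed FBS and exposed to compounds at 1 and 10 μM for 24 h. Motility filmed 1 min at 10 frames/s, quantified by pixel displacement versus DMSO-treated worms; recovery followed up to five days after washout.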

[2] = system: S. mansoni schistosomulae; test: Motility assay on schistosomulae (pixel displacement, relative to DMSO control); assay type: cell-based, Schistosoma mansoni; details: for activity at 1 µM: Schistosoma mansoni, read-out: Fractional motility; for motility in extended assay with reduced incubation times, in words: three-day old schistosomulae, incubation 1 h, 3 h, 6 h
Method in brief: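 Mechanically transformed S. mansoni schistosomulae (200/well) in Opti-MEM with 5% dialyzed FBS were exposed to compounds at 1 and 10 μM for 24 h at 37 °C, 5% CO2. Motility filmed at 10 frames/s for 1 min and quantified by pixel displacement relative to DMSO-treated controls.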

[3] = system: S. mansoni schistosomulae; test: Phenotypic primary screen assay on schistosomulae (phenotype; viability by methylene blue dye exclusion); assay type: cell-based, Schistosoma mansoni
Method in brief: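 Parasites lacking contraction/relaxation cycles and showing dark internal granulations counted as dead. Movement and body shape were compared with DMSO-treated controls under a stereo microscope at 24 h and at five days of exposure. Larvae came from infected snails shed under light for 2 h at 32 °C.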

[4] = system: S. mansoni schistosomulae; test: as above; assay type: cell-based; details: Schistosoma mansoni
SmD2 = SmD2 (Schistosoma mansoni, UniProt G4LUJ1); test: cell-based; assay type: cell-based
Sm5HTR = Sm5HTR (Schistosoma mansoni, UniProt G4V5G4); test: cAMP luminescence (GloSensor) assay, HEK293 cells expressing Sm5HTR; assay type: cell-based, S. mansoni; details: compound incubation followed by 50 μM 5-HT
[5] = 120 h, schistosomulae, secondary screen, 24h exposure, read at D5, 1 µM
[6] = schistosomulae, secondary screen, 24h exposure, read at D1, 1 µM
[7] = schistosomulae, secondary screen, 24h exposure, read at D1, 10 µM
[8] = schistosomulae, secondary screen, 24h exposure, read at D5, 10 µM
[9] = three-day-old schistosomulae, 10 μM, 24 h, estimated 5 days post compound exposure
[10] = three-day-old schistosomulae, 10 μM, 24 h, calculated 5 days post compound exposure, read-out: Viability (%)
[11] = schistosomulae, 1h exposure, read at D1, 10 µM
[12] = schistosomulae, 1h exposure, read at D5, 10 µM
[13] = schistosomulae, 3h exposure, read at D1, 10 µM
[14] = schistosomulae, 3h exposure, read at D5, 10 µM
[15] = schistosomulae, 6h exposure, read at D1, 10 µM
[16] = schistosomulae, 6h exposure, read at D5, 10 µM
[17] = inhibition of EPN-evoked luminescence, SmD2 expressing HEK293 cells, read-out: IC50
[18] = NPS-2143 and analogs, 24h, D1, 10 µM
[19] = NPS-2143 and analogs, 24h, D5, 10 µM
[20] = 120 h, NPS-2143 and analogs, 24h, D5, 1 µM
[21] = NPS-2143 and analogs, 24h, D1, 1 µM

Sequence of SmD2 (G4LUJ1 entry or part of it): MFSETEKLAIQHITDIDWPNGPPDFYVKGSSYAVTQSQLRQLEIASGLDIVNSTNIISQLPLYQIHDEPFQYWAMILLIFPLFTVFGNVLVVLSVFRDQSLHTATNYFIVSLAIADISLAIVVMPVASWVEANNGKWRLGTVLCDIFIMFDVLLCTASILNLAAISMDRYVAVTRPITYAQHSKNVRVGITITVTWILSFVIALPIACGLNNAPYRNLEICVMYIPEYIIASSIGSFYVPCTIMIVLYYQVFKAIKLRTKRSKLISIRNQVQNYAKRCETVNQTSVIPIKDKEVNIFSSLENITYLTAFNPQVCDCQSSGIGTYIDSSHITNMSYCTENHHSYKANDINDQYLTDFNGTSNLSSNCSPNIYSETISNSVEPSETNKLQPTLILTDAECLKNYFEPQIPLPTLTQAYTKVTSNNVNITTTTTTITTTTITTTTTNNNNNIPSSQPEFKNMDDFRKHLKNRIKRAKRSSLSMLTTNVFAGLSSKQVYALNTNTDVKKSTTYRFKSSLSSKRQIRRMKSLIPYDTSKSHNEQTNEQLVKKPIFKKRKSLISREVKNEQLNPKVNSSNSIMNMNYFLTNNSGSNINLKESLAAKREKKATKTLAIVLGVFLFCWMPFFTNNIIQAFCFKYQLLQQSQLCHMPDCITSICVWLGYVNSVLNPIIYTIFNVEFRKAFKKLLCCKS
Sequence of Sm5HTR (G4V5G4 entry or part of it): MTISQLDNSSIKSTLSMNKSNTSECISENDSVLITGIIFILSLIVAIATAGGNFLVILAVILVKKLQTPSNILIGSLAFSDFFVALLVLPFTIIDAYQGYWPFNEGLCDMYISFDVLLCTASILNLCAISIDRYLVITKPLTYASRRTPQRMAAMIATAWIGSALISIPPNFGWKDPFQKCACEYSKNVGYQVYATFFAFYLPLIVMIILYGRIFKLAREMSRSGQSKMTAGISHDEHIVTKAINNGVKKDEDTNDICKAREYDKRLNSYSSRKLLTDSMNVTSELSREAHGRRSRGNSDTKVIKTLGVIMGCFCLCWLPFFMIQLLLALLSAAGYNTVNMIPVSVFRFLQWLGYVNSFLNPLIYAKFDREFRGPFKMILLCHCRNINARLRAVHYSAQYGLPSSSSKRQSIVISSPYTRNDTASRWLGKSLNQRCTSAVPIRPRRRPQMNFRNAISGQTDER

## O=C1CCc2ccc(OCCCCN3CCN(c4cccc(Cl)c4Cl)CC3)cc2N1 [Aripiprazole]
[1]
  inhibition of EPN-evoked luminescence: ≥ 50%
S. mansoni adult worms; D1, Female adult worms
  Fractional motility: 0.19
S. mansoni adult worms; D1, Male adult worms
  Fractional motility: 0.50
S. mansoni adult worms; D5, Female adult worms
  Fractional motility: -0.80
S. mansoni adult worms; D5, Male adult worms
  Fractional motility: -0.14
[2]; [5]
  activity at 1 µM: -61%
[2]; [6]
  activity at 1 µM: -48%
[2]; [7]
  Fractional motility: -0.15
[2]; [8]
  Fractional motility: -0.56
[3]; [9]
  Phenotype: granulated
[4]; [10]
  viability at 10 µM: 96.5%

## CNCC[C@H](Oc1cccc2ccccc12)c1cccs1 [Duloxetine]
SmD2
  IC50: 5950 nM
SmD2; HEK293, read-out: inhibition of EPN-evoked luminescence
  inhibition at 10 µM: ≥ 50%
[1]
  inhibition of EPN-evoked luminescence: ≥ 50%
S. mansoni adult worms; D1, Female adult worms
  Fractional motility: 0.62
S. mansoni adult worms; D1, Male adult worms
  Fractional motility: 4.31
S. mansoni adult worms; D5, Female adult worms
  Fractional motility: 0.30
S. mansoni adult worms; D5, Male adult worms
  Fractional motility: 0.54
[2]; 120 h
  activity at 1 µM: -13%
[3]
  Phenotype: granulated
[4]
  viability at 10 µM: 90%

## CNCCc1ccc(O)c(O)c1 [EPN, epinine]
SmD2; luminescent cAMP signal, agonist
  EC50: 2520 ± 1120 nM

## O=[N+]([O-])c1ccc2c(c1)S(=O)(=O)C=C2 [Stattic]
Sm5HTR
  inhibition of Sm5HTR 5-HT-evoked signals: ≥ 50%
[1]; 20 μM forskolin
  effect on luminescence evoked by forskolin: significant decrease in luminescence
S. mansoni adult worms; D1, Female adult worms
  Fractional motility: 0.39
S. mansoni adult worms; D1, Male adult worms
  Fractional motility: -0.03
S. mansoni adult worms; D5, Female adult worms
  Fractional motility: -0.90
S. mansoni adult worms; D5, Male adult worms
  Fractional motility: 0.23
[2]; [11]
  Fractional motility: -0.71
[2]; [12]
  Fractional motility: -0.69
[2]; [13]
  Fractional motility: -0.97
[2]; [14]
  Fractional motility: -1.00
[2]; [15]
  Fractional motility: -0.91
[2]; [16]
  Fractional motility: -0.99
[2]; [6]
  Fractional motility: 0.84
[2]; [7]
  Fractional motility: 1.23
[2]; schistosomulae, secondary screen, 24h exposure, read at D5, 1 µM
  Fractional motility: -0.47
[2]; [8]
  Fractional motility: -0.96
[3]; three-day-old schistosomulae, 10 μM, 24 h, calculated 5 days post compound exposure
  Viability (%): 0%
[3]; [9]
  Phenotype: big, dark, granulated

## Cc1ccc(Sc2ccccc2N2CCNCC2)c(C)c1 [Vortioxetine]
SmD2; HEK293, SmD2 cells, 10 μM compound, 50 μM EPN, read-out: inhibition of EPN-evoked luminescence
  inhibition at 10 µM: ≥ 50%
SmD2; [17]
  IC50: 3680 nM
[1]
  inhibition of EPN-evoked luminescence: ≥ 50%
S. mansoni adult worms; D1, Female adult worms
  Fractional motility: 2.64
S. mansoni adult worms; D1, Male adult worms
  Fractional motility: 2.15
S. mansoni adult worms; D5, Female adult worms
  Fractional motility: 0.24
S. mansoni adult worms; D5, Male adult worms
  Fractional motility: 1.01
[2]; 120 h, Selleckchem customized library secondary screen, 24h, D5, 1 µM
  activity at 1 µM: 60%
[2]; Selleckchem customized library secondary screen, 24h, D1, 10 µM
  Fractional motility: 55.99
[2]; Selleckchem customized library secondary screen, 24h, D5, 10 µM
  Fractional motility: -0.42
[2]; schistosomulae, after 24 h exposure
  motility phenotype in words: high levels of hypermotility
[3]; 24 h incubation, five days
  effect on viability of schistosomulae in words: schistosomulicidal
[3]; [9]
  Phenotype: big, granulated
[4]; [10]
  viability at 10 µM: 10%

## COCCn1c2c([n+](Cc3cnccn3)c1C)C(=O)c1ccccc1C2=O [YM155]
S. mansoni adult worms; D1, Female adult worms
  Fractional motility: 0.22
S. mansoni adult worms; D1, Male adult worms
  Fractional motility: 1.90
S. mansoni adult worms; D5, Female adult worms
  Fractional motility: -0.79
S. mansoni adult worms; D5, Male adult worms
  Fractional motility: 0.70
[2]; [5]
  activity at 1 µM: -82%
[2]; [6]
  activity at 1 µM: -73%
[2]; [11]
  Fractional motility: -0.48
[2]; [12]
  Fractional motility: -0.85
[2]; [13]
  Fractional motility: -0.70
[2]; [14]
  Fractional motility: -0.96
[2]; [15]
  Fractional motility: 1.86
[2]; [16]
  Fractional motility: -1.00
[2]; [7]
  Fractional motility: -0.91
[2]; [8]
  Fractional motility: -1.00
[2]
  motility in extended assay with reduced incubation times, in words: significant and sustained hypomotility
[3]; [9]
  Phenotype: big, granulated
[4]; [10]
  viability at 10 µM: 40%

## O=C1Cc2cc(CCN3CCN(c4nsc5ccccc45)CC3)c(Cl)cc2N1 [Ziprasidone]
S. mansoni adult worms; D1, Female adult worms
  Fractional motility: 1.30
S. mansoni adult worms; D1, Male adult worms
  Fractional motility: 0.47
S. mansoni adult worms; D5, Female adult worms
  Fractional motility: -0.12
S. mansoni adult worms; D5, Male adult worms
  Fractional motility: 0.73
[2]; [5]
  activity at 1 µM: -73%
[2]; [6]
  activity at 1 µM: 0.0588%
[2]; [11]
  Fractional motility: 9.35
[2]; [12]
  Fractional motility: -0.16
[2]; [13]
  Fractional motility: 8.26
[2]; [14]
  Fractional motility: -0.06
[2]; [15]
  Fractional motility: 0.49
[2]; [16]
  Fractional motility: 0.31
[2]; schistosomulae, after 24 h incubation
  hypermotility relative to control: 11 ± 2 fold
[2]; schistosomulae, long-term, five days after compound washout
  motility phenotype in words: all parasites became paralyzed
[2]; [7]
  Fractional motility: 10.63
[2]; [8]
  Fractional motility: -1.00
[2]
  motility in extended assay with reduced incubation times, in words: did not exhibit a significant change before the 24 hr incubation cut-off
[3]; [9]
  Phenotype: dark, granulated
[4]; [10]
  viability at 10 µM: 2.5%

## COc1ccc(CCNCC(O)COc2ccccc2C2CC3CCC2C3)cc1OC (stereo not shown) [compound 28]
SmD2; [17]
  IC50: 27.2 nM
[2]; [18]
  Fractional motility: -1.00
[2]; [19]
  Fractional motility: -1.00
[2]; [20]
  activity at 1 µM: -67%
[2]; [21]
  activity at 1 µM: -69%

## CC(=O)Nc1ccc(CCNCC(O)COc2cccc3ccccc23)cc1 (stereo not shown) [compound 31]
SmD2; [17]
  IC50: 21.7 nM
[2]; [18]
  Fractional motility: -0.82
[2]; [19]
  Fractional motility: -0.79
[2]; [20]
  activity at 1 µM: -34%
[2]; [21]
  activity at 1 µM: -69%

## OC(CNCCc1ccccc1)COc1ccccc1C1CCCCC1 (stereo not shown) [compound 35]
SmD2; [17]
  IC50: 12.3 nM
[2]; [18]
  Fractional motility: -0.99

## O=C(CCCN1CCC2(CC1)C(=O)NCN2c1ccccc1)c1ccc(F)cc1 [spiperone]
SmD2; [17]
  IC50: 1510 nM
